In patent US6858589B2, “Methods of and compositions for potentiating the action of agents active on cell wall sites of the susceptible bacteria” (priority 1996, dated 2005):

Key:
E. coli NCTC 10418 = assay: Kill kinetics and regrowth of E. coli after gentamicin bolus pre-exposure followed by maintained cephazolin; format: cell-based, Escherichia coli; conditions: then cephazolin 0 mg/L
Excerpt: In comparative experiments described in the examples herein, a reference strain of Escherichi coli (E. coli NCTC 10418) was exposed to constant concentrations of cephazolin in the culture medium (see FIGS. 1A and IIA).
The experimental work described herein involved testing bacterial response while changing aminoglycoside concentrations with time in the test tube, and mimics closely measurements made in man under clinical conditions (Bastone E B, Li S C, Ioannides-Demos L L, Spicer J., McLean A J, “Kill kinetics and regrowth patterns of E. coli exposed to gentamicin concentration-time profiles simulating in vivo bolus or infusion dosing”, Antimicrob Agents Chemother. 37:914-917, 1993).
The form of this profile is governed in vivo by distribution into tissue from the central circulation. In in vitro experiments, gentamicin was removed (T=0 time) by centrifugation and washing with antibiotic-free medium. The incubation was reconstituted with media containing 0 mg/l, 1 mg/l or 2 mg/l cephazolin (see FIG. IA).
In FIG. IB, it can be seen that the pattern of growth of control organisms (not exposed to antibiotic) is designated by the dotted line ( - - - ), while the growth patterns of test organisms are represented by the solid lines with symbols indicating each type of treatment or test (FIG. IB).

[1] = Gentamicin concentration-time profile measured in the in vitro culture medium
Description: The aminoglycoside reached a peak concentration of 4 mg/l 30 minutes post-dose and was removed from the E. coli culture by washing. Medium containing 0, 2, 2.5 and 3 mg/l gentamicin was reconstituted and added to the culture at 1 hour after initial exposure to the aminoglycoside (n=6).
With each antibiotic, concentration-time profiles similar to those observed in the blood of clinical patients following conventional intravenous dosing of an aminoglycoside (gentamicin) and pump-driven profiles of gentamicin and cephalosporin (cephazolin) were attained. The concentration-time profiles for each drug class have the general form shown in FIG. IA and FIG. IIIA of the accompanying drawings. Additionally a gentamicin profile of the form shown in FIG. IIIA was generated, which reached a peak of 12 mg/l over 3 hours, was maintained at 12 mg/l for a further hour, then was reconstituted to a range of steady-state concentrations (0, 0.5, 1.0, 2.0, 3.0, 4.0 mg/l) to yield the experimental results shown in Table 4.

[2] = in vitro profile: peak 4 mg/liter, reconstituted to 3.0 mg/liter at 1 hr, maintained 0 hr (control)
[3] = in vitro profile: peak 4 mg/liter, reconstituted to 3.0 mg/liter at 1 hr, maintained 2 hr
[4] = in vitro profile: peak 4 mg/liter, reconstituted to 3.0 mg/liter at 1 hr, maintained 4 hr
[5] = in vitro profile: peak 4 mg/liter, reconstituted to 3.0 mg/liter at 1 hr, maintained 8 hr
[6] = in vitro profile: post-distribution peak 4 mg/liter, reconstituted at 1 hr to 0 mg/liter
[7] = in vitro profile: post-distribution peak 4 mg/liter, reconstituted at 1 hr to 2.0 mg/liter
[8] = in vitro profile: post-distribution peak 4 mg/liter, reconstituted at 1 hr to 2.5 mg/liter
[9] = in vitro profile: post-distribution peak 4 mg/liter, reconstituted at 1 hr to 3.0 mg/liter

## gentamicin
E. coli NCTC 10418; 12 mg/L bolus gentamicin, 2 h
  BACTERIAL COUNTS: 0.69 ± 0.87 log10 cfu/mL
E. coli NCTC 10418; 12 mg/L bolus gentamicin, 8 h
  BACTERIAL COUNTS: 4.54 ± 1.15 log10 cfu/mL
E. coli NCTC 10418; 12 mg/L bolus gentamicin, 24 h
  BACTERIAL COUNTS: 8.80 ± 0.05 log10 cfu/mL
E. coli NCTC 10418; 12 mg/L bolus gentamicin, −0.5 h
  BACTERIAL COUNTS: 6.10 ± 0.26 log10 cfu/mL
E. coli NCTC 10418; 16 mg/L bolus gentamicin, 2 h
  BACTERIAL COUNTS: 0.48 ± 0.76 log10 cfu/mL
E. coli NCTC 10418; 16 mg/L bolus gentamicin, 8 h
  BACTERIAL COUNTS: 3.85 ± 1.24 log10 cfu/mL
E. coli NCTC 10418; 16 mg/L bolus gentamicin, 24 h
  BACTERIAL COUNTS: 8.79 ± 0.05 log10 cfu/mL
E. coli NCTC 10418; 16 mg/L bolus gentamicin, −0.5 h
  BACTERIAL COUNTS: 5.85 ± 0.050 log10 cfu/mL
E. coli NCTC 10418; 20 mg/L bolus gentamicin, 2 h
  BACTERIAL COUNTS: NGD
E. coli NCTC 10418; 20 mg/L bolus gentamicin, 8 h
  BACTERIAL COUNTS: 3.15 ± 0.734 log10 cfu/mL
E. coli NCTC 10418; 20 mg/L bolus gentamicin, 24 h
  BACTERIAL COUNTS: 8.81 ± 0.04 log10 cfu/mL
E. coli NCTC 10418; 20 mg/L bolus gentamicin, −0.5 h
  BACTERIAL COUNTS: 5.89 ± 0.03 log10 cfu/mL
[1]; [2]
  AUC 0-49 h: 3.93 ± 0.33 µg·h/mL
  Cmax: 6120 ± 350 ng/mL
  Cmin: 0 ng/mL
[1]; [3]
  AUC 0-49 h: 124.98 ± 3.08 µg·h/mL
  Cmax: 6230 ± 270 ng/mL
  Cmin: 2450 ± 240 ng/mL
[1]; [4]
  AUC 0-49 h: 120.99 ± 6.05 µg·h/mL
  Cmax: 6300 ± 450 ng/mL
  Cmin: 2370 ± 340 ng/mL
[1]; [5]
  AUC 0-49 h: 119.78 ± 8.84 µg·h/mL
  Cmax: 6370 ± 220 ng/mL
  Cmin: 2350 ± 190 ng/mL
[1]; [6]
  AUC 0-49 h: 3.97 ± 0.09 µg·h/mL
  Cmax: 6220 ± 330 ng/mL
  Cmin: 0 ng/mL
[1]; [7]
  AUC 0-49 h: 102.66 ± 6.91 µg·h/mL
  Cmax: 6320 ± 250 ng/mL
  Cmin: 1930 ± 240 ng/mL
[1]; [8]
  AUC 0-49 h: 124.40 ± 4.27 µg·h/mL
  Cmax: 6230 ± 230 ng/mL
  Cmin: 2470 ± 310 ng/mL
[1]; [9]
  AUC 0-49 h: 153.43 ± 11.01 µg·h/mL
  Cmax: 6280 ± 370 ng/mL
  Cmin: 2880 ± 230 ng/mL
